Reference: US10287267B2, “Isoquinolin-3-yl carboxamides and preparation and use thereof” (Samumed, LLC, priority 2016, dated 2019)
Where two headings read alike, the source gives them in different places.

Tests used:
[1] = target: recombinant DYRK1A kinase (Homo sapiens (Human), UniProt Q13627); assay: DYRK1A kinase assay (Ser/Thr 18 peptide Z-lyte FRET); type: biochemical; conditions: 30 μM ATP, 1 h room temperature;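 note: Read-out is the coumarin to fluorescein emission ratio, referenced to unphosphorylated (0%) and phosphorylated (100%) Ser/Thr 18 peptide controls, values from dose-response curves by non-linear regression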
recombinant GSK3β kinase = recombinant GSK3β kinase (Homo sapiens (Human), UniProt P49841); assay: GSK3β kinase assay (Ser/Thr 09 peptide Z-lyte FRET); type: biochemical; conditions: 46 μM ATP, 1 h room temperature;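 note: kinase activity read as coumarin to fluorescein emission ratio, 11-point threefold dilutions from 10 µM to 0.0003 µM in duplicate, unphosphorylated and phosphorylated peptide as 0% and 100% controls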
IL-6 [2] = assay: IL-6 inhibition in LPS-stimulated human peripheral blood mononuclear cells (HTRF); type: cell-based; conditions: Table 9, huPBMCs, LPS 50 ng/mL, 22 hours, dose-response starting from 10 μM;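 note: IL-6 detected by HTRF with an XL665- and Cryptate-labelled anti-IL-6 antibody pair, samples run in duplicate, EC50 obtained from a four-parameter Levenberg-Marquardt curve fit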
Protocol: After 22 hour incubation, a mixture of anti-IL6 XL665 and anti-IL-6 Cryptate diluted in reconstitution buffer (Catalog #62IL6PEC, Cisbio Inc., Bedford, Mass.) was added to each well. […] All samples were processed in duplicate. […] EC50 was determined using software generated by Dotmatics Limited (Windhill Bishops Stortford Herts, UK) using the Levenberg-Marquardt 4 parameter fitting procedure with finite different gradients.

[3] = test system: Tau phosphorylation at Ser396 (pSer396); assay: Tau phosphorylation assay (pSer396 ELISA / western blot) in SH-SY5Y cells; type: cell-based, human; conditions: read-out: pSer396 Tau EC50;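 note: EC50 for reduction of Tau pSer396 in lysed cells, measured by colorimetric ELISA or chemiluminescent western blot, both using the same pSer396 antibody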
Protocol: Two days before treatment, cells were seeded onto 96 well plates at 5×10^4 cells/well.
Wells were visually checked for cell death or change in morphology and supernatants were tested for cytotoxicity by measurement of lactate dehydrogenase release (LDH, CytoToxOne kit, Promega) if necessary.
Cells were lysed with RIPA buffer complemented with phosphatase and protease inhibitors then lysates were spun down at 12,000 g for 10 min to remove any cellular debris. Lysates are then either directly tested for pSer396 by ELISA (Life Technology, Kit KHB7031) or loaded on NuPage Bis-Tris gels for western blot analysis. Colorimetric detection of ELISA signal is performed by Cytation3 plate reader (Biotek) and the chemiluminescence signal for HRP-linked antibodies used in western blotting is detected using a Carestream Image Station. The same pSer396 antibody is used for detection of pTau in both assays.

IL-6 [4] = assay: Secreted cytokines in lipopolysaccharide-stimulated BV-2 mouse microglial cells: IL-6; type: cell-based; conditions: BV-2 cells, compounds overnight, LPS 250 ng/mL 5 h
Protocol: (§1) Representative compounds were screened using the cell-based assay procedure for secreted cytokines in a Lipopolysaccharide-stimulated mouse glial cell line described below.
(§2) BV-2 cells (mouse microglial cells) were cultured in 1:1 DMEM medium supplemented with 10% FBS, and 1% penicillin/streptomycin.
(§3) BV-2 cells are plated at 35,000 cells/well in a volume of 100 ul for at least 4 hours before compounds are added. DMSO-resuspended compounds were first dispensed in a 96 well plate and serial diluted from 10 μM to 4.6 nM final concentration in medium. Compounds were added to cells overnight. Two hundred fifty ng per milliliter of lipopolysaccharide (Escherichia coli O55:B5, SIGMA) was added for 5 h. Supernatant is removed and saved for further cytokine detection. The original plates with seeded cells were tested for cytotoxicity by measure of adenosine triphosphate (ATP) release by adding CellTiter-Glo® diluted 1:4 in distilled water (G7573, Promega) and transferring lysed cells to a completely black 96-well plate to be read with the Cytation3. Supernatant was then diluted 1:2 with a diluent from V-PLEX cytokine Kit and directly tested for the secreted cytokines TNFα, IL-6 and KC-GRO using electrochemiluminescence (Meso Scale Discovery). The standard curve for each cytokine was used to convert the electrochemiluminescent signal into pg of protein per mL.

[5] = test system: Wnt pathway (Sp5-Luc reporter, TCF/LEF binding sites) in SW480 colon carcinoma cells; assay: Screening assay for Wnt activity: Sp5-Luc reporter gene assay; type: cell-based, human; conditions: Sp5-Luc reporter, SW480 cells, 36 to 48 hours;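 note: firefly luciferase luminescence read in stably transduced SW480 cells carrying the Sp5 promoter reporter with eight TCF/LEF sites, compounds given in 0.1% DMSO final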
Protocol: The screening assay for Wnt activity is described as follows.
Following incubation, 15 μl of BriteLite Plus luminescence reagent (Perkin Elmer) was added to each well of the 384-well assay plates. The plates were placed on an orbital shaker for 2 min and then luminescence was quantified using the Envision (Perkin Elmer) plate reader.

[6] = test system: SW480 colon carcinoma cells; assay: Cell viability assay (CellTiter-Glo); type: cell-based, human; conditions: SW480 cells, CellTiter-Glo, four days incubation
[7] = test system: α-smooth muscle actin (αSMA) positive LL29 cells; assay: Inhibition of fibrotic process: αSMA in TGF-β1 treated primary human fibroblasts from IPF patients; type: cell-based; conditions: Homo sapiens, Fibroblast, 96 h; Table 8; LL29 fibroblasts from IPF patients, TGF-β1 20 ng/mL, 4 days; dose-response 10 μM to 0.94 nM;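 note: controls were TGF-β1 stimulated wells with DMSO vehicle (positive) and cells given DMSO alone (negative), cultured in F12 medium with 1% fetal bovine serum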
TNFα = assay: Secreted cytokines in lipopolysaccharide-stimulated BV-2 mouse microglial cells: TNFα; type: cell-based; conditions: BV-2 cells, compounds overnight, LPS 250 ng/mL 5 h
Protocol: as §1, §2, §3

[8] = test system: secreted β-amyloid 40 (Aβ40) peptide; assay: Secreted β-amyloid 40 (Aβ40) peptide in APP overexpressing SH-SY5Y-APP cells; type: cell-based; conditions: Homo sapiens, overnight (16-18 hours)
Protocol: Representative compounds were screened using the cell-based assay procedure for secreted β-amyloid 40 (Aβ40) peptide in an APP overexpressing cell line described below.
SH-SY5Y cells were infected with lentivirus to overexpress amyloid (A4) beta precursor protein (APP), hereafter referred to as the SH-SY5Y-APP cells.
SH-SY5Y cells were seeded onto 6-well plates at
The cell assay procedure start 18 h prior to treatment, as SH-SY5Y-APP cells were seeded onto 96-well plates at
At this time, designated wells were seeded with SH-SY5Y cells that were seeded and treated with puromycin at
Cells were exposed overnight (16-18 hours) in a 37° C. incubator before supernatant was harvested. […] The original plates with seeded cells were tested for cytotoxicity by measure of adenosine triphosphate (ATP) release by adding CellTiter-Glo® diluted 1:4 in distilled water (G7573, Promega) and transferring lysed cells to a completely black 96-well plate to be read with the Cytation3. Plates containing supernatant were spun down at 1200 g for 10 minutes to remove any cellular debris. Supernatant was then diluted 1:2 with a diluent from V-PLEX Aβ40 Peptide (6E10) Kit and directly tested for secreted Aβ40 peptide (K150SKE, Meso Scale Discovery).

[9] = Homo sapiens, SH-SY5Y cells, overnight (16-18 h) exposure

Sequence of recombinant GSK3β kinase (P49841 whole entry): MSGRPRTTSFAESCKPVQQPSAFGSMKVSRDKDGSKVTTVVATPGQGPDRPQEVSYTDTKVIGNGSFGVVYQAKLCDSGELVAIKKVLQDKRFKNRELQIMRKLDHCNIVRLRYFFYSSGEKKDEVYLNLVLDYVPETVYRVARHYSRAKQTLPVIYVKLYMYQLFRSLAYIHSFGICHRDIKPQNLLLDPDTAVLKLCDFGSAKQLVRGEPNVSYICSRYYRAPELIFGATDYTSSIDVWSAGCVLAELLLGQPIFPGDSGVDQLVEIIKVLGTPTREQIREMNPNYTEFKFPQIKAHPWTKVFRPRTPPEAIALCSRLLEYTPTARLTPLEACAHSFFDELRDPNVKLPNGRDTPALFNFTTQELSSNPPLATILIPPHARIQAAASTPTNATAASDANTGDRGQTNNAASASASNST

Molecule | EC50 [1] [nM] | EC50 (recombinant GSK3β kinase) [nM] | EC50 (IL-6 [2]) [nM] | EC50 ([3]; SH-SY5Y cells, overnight (16-18 h) exposure) [nM] | EC50 (IL-6 [4]) [nM] | EC50 [5] [nM] | EC50 [6] [nM] | EC50 (IL-6 [2]; Homo sapiens, PBMC) [nM] | EC50 [7] [nM] | EC50 [3, 9] [nM] | EC50 (IL-6 [4]; Mus musculus) [nM] | EC50 (TNFα) [nM] | EC50 ([5]; Homo sapiens) [nM] | EC50 ([6]; Homo sapiens, 96 h) [nM] | IC50 [8] [nM] | EC50 ([3]; Homo sapiens, SH-SY5Y) [nM]
1-(2-Hydroxy-2-methylpropyl)-N-(6-(1-methyl-1H-1,2,3-triazol-4-yl) isoquinolin-3-yl)piperidine-4-carboxamide [Compound 1070] | 7.6 | 16 | 6470 | 91 | 14 | 738 | 8390 | – | – | – | – | – | – | – | – | –
CN1CCC(C(=O)Nc2cc3cc(-c4cnn(C)c4)ccc3cn2)CC1 [Compound 73, 1-Methyl-N-(6-(1-methyl-1H-pyrazol-4-yl)isoquinolin-3-yl)piperidine-4-carboxamide] | 1.7 | 49 | – | – | – | – | – | 963 | 169 | 199 | 80 | 23 | 485 | 769 | – | –
Cn1cc(-c2ccc3cnc(NC(=O)C4CCN(CC(C)(F)F)CC4)cc3c2)cn1 [Compound 83, 1-(2,2-Difluoropropyl)-N-(6-(1-methyl-1H-pyrazol-4-yl)isoquinolin-3-yl) piperidine-4-carboxamide] | 1.2 | 34 | – | – | – | – | – | 2150 | 67 | 432 | 6 | – | 2900 | 6340 | > 10000 | –
Cn1nncc1-c1ccc2cnc(NC(=O)C3CCN(CCC(F)(F)F)CC3)cc2c1 [Compound 248, N-(6-(1-Methyl-1H-1,2,3-triazol-5-yl)isoquinolin-3-yl)-1-(3,3,3-trifluoropropyl)piperidine-4-carboxamide] | 37.4 | 266 | – | – | – | – | – | 9730 | 7920 | 905 | – | – | > 10000 | > 10000 | > 10000 | –
Cn1cncc1-c1ccc2cnc(NC(=O)C3CCC(F)(F)CC3)cc2c1 [Compound 263, 4,4-Difluoro-N-(6-(1-methyl-1H-imidazol-5-yl)isoquinolin-3-yl) cyclohexanecarboxamide] | 1.3 | 18 | – | – | – | – | – | 451 | 134 | 119 | – | – | 1300 | 1290 | 5300 | –
Cn1cncc1-c1ccc2cnc(NC(=O)C3C(C)(C)C3(C)C)cc2c1 [Compound 269, 2,2,3,3-Tetramethyl-N-[6-(3-methylimidazol-4-yl)-3-isoquinolyl]cyclopropanecarboxamide] | 5 | 1020 | – | – | – | – | – | 3390 | 396 | – | – | – | 3620 | 2330 | > 10000 | 4300
Cn1cc(-c2ccc3cnc(NC(=O)C4CCN(CCC(F)(F)F)CC4)cc3c2)nn1 [Compound 271, N-(6-(1-methyl-1H-1,2,3-triazol-4-yl)isoquinolin-3-yl)-1-(3,3,3-trifluoropropyl)piperidine-4-carboxamide] | 2.1 | 3 | – | – | – | – | – | 3080 | 64 | 124 | – | – | 1720 | 2960 | 4600 | –
Cn1cnnc1-c1ccc2cnc(NC(=O)C3CCN(CCC(F)(F)F)CC3)cc2c1 [Compound 278, N-(6-(4-Methyl-4H-1,2,4-triazol-3-yl)isoquinolin-3-yl)-1-(3,3,3-trifluoropropyl)piperidine-4-carboxamide] | 3.2 | 7 | – | – | – | – | – | 3990 | 211 | 76 | 217 | > 10000 | 413 | 1230 | – | –
CC(C)CN1CCC(C(=O)Nc2cc3cc(-c4cn(C)nn4)ccc3cn2)CC1 [Compound 468] | 4.9 | 7 | – | – | – | – | – | 5780 | – | 39 | 23 | 2100 | 363 | 2510 | – | –
